Source: patent US20240383905A1, “FGFR INHIBITORS AND METHODS OF USE THEREOF” (3H PHARMACEUTICALS CO., LTD., priority 2021, published 2024)
Where two headings read alike, the source gives them in different places.

Tests used:
SNU16 cells = assay: SNU16 Cancer Cell Line Proliferation Assay (CellTiter-Glo); format: cell-based
Description: Compounds of the present invention were also tested in a SNU16 Cancer Cell Line Proliferation Assay.
SNU16 cells were plated in 96-well clear bottom/white plate(Costar, Cat.No. 3610) at 5000 cells/well in 100 μl medium. Test compounds were prepared in a 10 mM DMSO stock solution and serially diluted into 9 concentrations by 3-fold dilution. 0.5 μl of each concentration of compound was added into the cell culture plates and DMSO as a control. The plates were incubated for 72 h at 37° C. and 5% CO2 incubator. 50 μl CellTiter-Glo reagent (Promega, G7572) was added into each well and then the plates were shaken gently for 10 min at room temperature. Luminescence was read on microplate reader (Molecular Devices, i3x), IC50 values were calculated using Prism 7 (GraphPad).

FGFR2 = biological target: T1, FGFR2 (Homo sapiens, UniProt P21802); assay: FGFR2 Biochemical Caliper Assay (KinEASE-TK kit); details: 0.07 nM FGFR2; compound incubated with protein 10 min, reaction 45 min at RT; read-out: FGFR2 Cliper IC50
T1 construct: purchased Carna 08-134
T1 sequence (P21802 22-821): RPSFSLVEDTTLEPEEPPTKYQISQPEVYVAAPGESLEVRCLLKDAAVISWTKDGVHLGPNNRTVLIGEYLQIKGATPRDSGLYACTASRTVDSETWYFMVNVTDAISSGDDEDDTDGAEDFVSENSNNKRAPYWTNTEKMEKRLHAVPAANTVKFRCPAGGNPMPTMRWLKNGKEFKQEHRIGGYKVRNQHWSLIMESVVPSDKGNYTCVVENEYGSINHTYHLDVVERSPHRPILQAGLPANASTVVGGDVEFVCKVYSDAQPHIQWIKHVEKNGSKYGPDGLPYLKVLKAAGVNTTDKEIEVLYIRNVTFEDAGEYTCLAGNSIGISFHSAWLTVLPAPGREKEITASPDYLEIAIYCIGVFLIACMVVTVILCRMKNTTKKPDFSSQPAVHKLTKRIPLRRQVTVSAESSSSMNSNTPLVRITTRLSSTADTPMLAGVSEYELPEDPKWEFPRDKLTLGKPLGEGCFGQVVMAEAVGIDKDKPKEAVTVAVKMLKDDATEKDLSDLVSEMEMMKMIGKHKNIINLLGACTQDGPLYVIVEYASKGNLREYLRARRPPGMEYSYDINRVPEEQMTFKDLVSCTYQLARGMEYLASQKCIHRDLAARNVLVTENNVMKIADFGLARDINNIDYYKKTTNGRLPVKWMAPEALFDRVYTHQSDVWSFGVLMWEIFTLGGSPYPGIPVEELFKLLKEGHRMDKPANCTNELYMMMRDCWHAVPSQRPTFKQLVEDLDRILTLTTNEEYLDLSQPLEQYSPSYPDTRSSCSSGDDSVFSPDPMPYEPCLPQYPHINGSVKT
Description: Compounds of the present invention were tested in a FGFR1, FGFR2, and FGFR3 Biochemical Caliper Assay.
(§1) Enzyme activity was monitored using KinEASE-TK kit (CisBio, Cat.No. 62TK0PEC) according to manufacturer's instructions. […] Final enzyme concentration was 0.2 nM for FGFR1 and FGFR3, 0.07 nM for FGFR2. Compounds were prepared in 10 mM DMSO and serially diluted into 10 concentrations by 3-fold dilution. Prior to the initiation of the reaction by adding TK-substrate/ATP mixture, the compounds were incubated with protein for 10 min at RT. […] Plates were quenched by adding TK-antibody-Cryptate and Sa-XL665 mixture. After 60 min in the stop solution, read the signal on microplate reader (Molecular Devices, i3x), excitation of 320 nm and emission of 615 nm and 665 nm with a […]. IC50 values were calculated using Prism 7 (GraphPad).

FGFR1 = biological target: T2, FGFR1 (Homo sapiens, UniProt P11362); assay: FGFR1 Biochemical Caliper Assay (KinEASE-TK kit); details: ratio FGFR1/FGFR2 of the biochemical assay
T2 construct: purchased Carna 08-133
T2 sequence (P11362 22-822): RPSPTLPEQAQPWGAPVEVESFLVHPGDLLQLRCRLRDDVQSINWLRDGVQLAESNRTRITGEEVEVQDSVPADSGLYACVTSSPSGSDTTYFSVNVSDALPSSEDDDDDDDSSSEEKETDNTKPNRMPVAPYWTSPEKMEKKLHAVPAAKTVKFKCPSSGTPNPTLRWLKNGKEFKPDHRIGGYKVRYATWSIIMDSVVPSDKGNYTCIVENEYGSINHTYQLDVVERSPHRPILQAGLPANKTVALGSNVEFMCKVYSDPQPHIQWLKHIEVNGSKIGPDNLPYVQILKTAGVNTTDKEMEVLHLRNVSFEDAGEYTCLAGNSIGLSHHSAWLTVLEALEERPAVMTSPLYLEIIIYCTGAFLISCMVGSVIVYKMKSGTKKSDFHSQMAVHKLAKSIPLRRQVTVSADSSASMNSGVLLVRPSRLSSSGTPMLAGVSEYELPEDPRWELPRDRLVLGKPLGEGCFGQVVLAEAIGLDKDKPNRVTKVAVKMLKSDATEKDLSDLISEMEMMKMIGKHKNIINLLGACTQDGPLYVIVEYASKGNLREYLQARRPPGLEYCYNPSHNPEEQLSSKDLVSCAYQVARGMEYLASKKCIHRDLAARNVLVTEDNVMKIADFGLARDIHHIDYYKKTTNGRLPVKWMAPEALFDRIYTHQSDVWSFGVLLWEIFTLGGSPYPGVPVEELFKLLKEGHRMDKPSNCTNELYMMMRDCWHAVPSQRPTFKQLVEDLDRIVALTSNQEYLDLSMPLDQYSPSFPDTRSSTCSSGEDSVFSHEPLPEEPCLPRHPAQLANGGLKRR
Description: as §1, with “Compounds of the present invention were tested in a FGFR1, FGFR2, and FGFR3 Biochemical Caliper Assay. Enzyme” for “Enzyme”

FGFR3 = biological target: T3, FGFR3 (Homo sapiens, UniProt P22607); assay: FGFR3 Biochemical Caliper Assay (KinEASE-TK kit); details: ratio FGFR3/FGFR2 of the biochemical assay
T3 construct: purchased Carna 08-135
T3 sequence (P22607 23-806): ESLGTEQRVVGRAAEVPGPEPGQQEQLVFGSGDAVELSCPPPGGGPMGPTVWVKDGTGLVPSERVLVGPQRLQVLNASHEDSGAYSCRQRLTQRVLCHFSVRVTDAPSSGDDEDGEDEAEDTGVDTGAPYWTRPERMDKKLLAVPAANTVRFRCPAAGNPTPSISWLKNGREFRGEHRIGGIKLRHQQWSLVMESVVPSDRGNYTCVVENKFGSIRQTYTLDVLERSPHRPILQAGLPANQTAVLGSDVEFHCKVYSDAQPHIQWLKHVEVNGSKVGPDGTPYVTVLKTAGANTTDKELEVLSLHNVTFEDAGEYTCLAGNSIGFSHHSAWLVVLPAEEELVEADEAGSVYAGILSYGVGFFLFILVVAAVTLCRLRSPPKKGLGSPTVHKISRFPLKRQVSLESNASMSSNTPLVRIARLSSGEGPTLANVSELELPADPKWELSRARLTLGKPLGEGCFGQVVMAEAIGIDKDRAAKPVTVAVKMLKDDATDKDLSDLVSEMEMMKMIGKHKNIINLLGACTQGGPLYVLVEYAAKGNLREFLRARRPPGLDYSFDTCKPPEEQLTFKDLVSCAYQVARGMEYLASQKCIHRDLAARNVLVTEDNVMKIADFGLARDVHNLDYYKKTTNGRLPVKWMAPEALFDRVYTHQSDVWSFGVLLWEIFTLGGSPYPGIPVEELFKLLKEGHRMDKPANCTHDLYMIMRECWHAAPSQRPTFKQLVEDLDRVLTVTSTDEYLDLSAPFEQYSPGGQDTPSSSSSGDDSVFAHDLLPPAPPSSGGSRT
Description: as §1, with “Compounds of the present invention were tested in a FGFR1, FGFR2, and FGFR3 Biochemical Caliper Assay. Enzyme” for “Enzyme”

`C=C(F)C(=O)Nc1ccc(-c2c(-c3ccc(C(=O)NCC(F)(F)F)c(OC)c3)c3c(N)ncc(C#N)c3n2C)c(F)c1` [Compound 151, 4-(4-amino-7-cyano-2-(2-fluoro-4-(2-fluoroacrylamido)phenyl)-1-methyl-1H-pyrrolo [3,2-c]pyridin-3-yl)-2-methoxy-N-(2,2,2-trifluoroethyl)benzamide] was tested, and the IC50 (SNU16 cells; Homo sapiens, SNU-16, 72 h) was at most 10 nM, the IC50 (FGFR2) was 5 to 10 nM and the “Selectivity FGFR1/FGFR2” value (FGFR1) was “A+ (Selectivity of FGFR1/FGFR2 greater or equal to 500)”. For the same compound, the “Selectivity FGFR3/FGFR2” value (FGFR3) was “A+ (Selectivity of FGFR3/FGFR2 greater or equal to 150)”.

`C=CC(=O)Nc1ccc(-c2c(-c3ccc(C(=O)NC4CC4)c(OC)c3)c3c(N)ncc(C#N)c3n2C)cc1` [Compound 105] was tested, and the IC50 (SNU16 cells; Homo sapiens, SNU-16, 72 h) was at most 10 nM, the IC50 (FGFR2) was under 5 nM and the “Selectivity FGFR1/FGFR2” value (FGFR1) was “A+ (Selectivity of FGFR1/FGFR2 greater or equal to 500)”. For the same compound, the “Selectivity FGFR3/FGFR2” value (FGFR3) was “A (Selectivity of FGFR3/FGFR2 less than 150 but greater than or equal to 100)”.

With `C=CC(=O)Nc1ccc(-c2nn3ncnc(N)c3c2-c2ccc(Oc3nccc(NC)n3)c(F)c2)cc1` [Compound 433, N-(4-(4-amino-5-(3-fluoro-4-((4-(methylamino)pyrimidin-2-yl)oxy)phenyl)pyrazolo[5,1-f][1,2,4]triazin-6-yl)phenyl) acrylamide] the IC50 (SNU16 cells; Homo sapiens, SNU-16, 72 h) was at most 10 nM, the IC50 (FGFR2) was 5 to 10 nM and the “Selectivity FGFR1/FGFR2” value (FGFR1) was “A+ (Selectivity of FGFR1/FGFR2 greater or equal to 500)”. For the same compound, the “Selectivity FGFR3/FGFR2” value (FGFR3) was “A+ (Selectivity of FGFR3/FGFR2 greater or equal to 150)”.

For `C=CC(=O)Nc1ccc(-c2nn3ncnc(N)c3c2-c2ccc(NC(=O)C3CC3(F)F)c(OC)c2)cc1` (stereo not drawn) [Compound 339, N-(4-(6-(4-acrylamidophenyl)-4-aminopyrazolo[5,1-f][1,2,4]triazin-5-yl)-2-methoxyphenyl)-2,2-difluorocyclopropane-1-carboxamide], the IC50 (SNU16 cells; Homo sapiens, SNU-16, 72 h) was at most 10 nM, the IC50 (FGFR2) was over 10 nM and the “Selectivity FGFR1/FGFR2” value (FGFR1) was “C (Selectivity of FGFR1/FGFR2 less than 200 but greater than or equal to 100)”. The “Selectivity FGFR3/FGFR2” value (FGFR3) was “B (Selectivity of FGFR3/FGFR2 less than 100 but greater than or equal to 25)”.

With `C=C(C)C(=O)Nc1ccc(-c2c(-c3ccc(Oc4nccc(C)n4)c(F)c3)c3c(N)ncc(C#N)c3n2C)c(C)c1` [Compound 501, N-(4-(4-amino-7-cyano-3-(3-fluoro-4-((4-methylpyrimidin-2-yl)oxy)phenyl)-1-methyl-1H-pyrrolo[3,2-c]pyridin-2-yl)-3-methylphenyl)methacrylamide] the IC50 (SNU16 cells; Homo sapiens, SNU-16, 72 h) was at most 10 nM, the IC50 (FGFR2) was over 10 nM and the “Selectivity FGFR1/FGFR2” value (FGFR1) was “A+ (Selectivity of FGFR1/FGFR2 greater or equal to 500)”. The “Selectivity FGFR3/FGFR2” value (FGFR3) was “A+ (Selectivity of FGFR3/FGFR2 greater or equal to 150)”.

`C=C(F)C(=O)Nc1ccc(-c2c(-c3ccc(C(=O)NC4CC4)c(OC)c3)c3c(N)ncc(C#N)c3n2C)cc1` [Compound 104, 4-(4-amino-7-cyano-2-(4-(2-fluoroacrylamido)phenyl)-1-methyl-1H-pyrrolo[3,2-c]pyridin-3-yl)-N-cyclopropyl-2-methoxybenzamide] was tested, and the IC50 (SNU16 cells; Homo sapiens, SNU-16, 72 h) was at most 10 nM, the IC50 (FGFR2) was 5 to 10 nM and the “Selectivity FGFR1/FGFR2” value (FGFR1) was “A+ (Selectivity of FGFR1/FGFR2 greater or equal to 500)”. The “Selectivity FGFR3/FGFR2” value (FGFR3) was “A+ (Selectivity of FGFR3/FGFR2 greater or equal to 150)”.

For `C=CC(=O)Nc1ccc(-c2nn3ncnc(N)c3c2-c2ccc(Oc3nccc(C)n3)c(F)c2)cc1` [Compound 205, N-(4-(4-amino-5-(3-fluoro-4-((4-methylpyrimidin-2-yl)oxy)phenyl)pyrazolo [5,1-f][1,2,4]triazin-6-yl)phenyl)acrylamide], the IC50 (SNU16 cells; Homo sapiens, SNU-16, 72 h) was at most 10 nM, the IC50 (FGFR2) was under 5 nM and the “Selectivity FGFR1/FGFR2” value (FGFR1) was “A+ (Selectivity of FGFR1/FGFR2 greater or equal to 500)”. The “Selectivity FGFR3/FGFR2” value (FGFR3) was “B (Selectivity of FGFR3/FGFR2 less than 100 but greater than or equal to 25)”.

In the case of `C=C(F)C(=O)Nc1ccc(-c2nn3ncnc(N)c3c2-c2ccc(C(=O)NC3CC3)c(OC)c2)c(Cl)c1` [Compound 199, 4-(4-amino-6-(2-chloro-4-(2-fluoroacrylamido)phe-nyl)pyrazolo[5,1-f][1,2,4]triazin-5-yl)-N-cyclopropyl-2-methoxybenzamide], the IC50 (SNU16 cells; Homo sapiens, SNU-16, 72 h) is reported as at most 10 nM, the IC50 (FGFR2) is reported as under 5 nM and the “Selectivity FGFR1/FGFR2” value (FGFR1) is reported as “A+ (Selectivity of FGFR1/FGFR2 greater or equal to 500)”. The “Selectivity FGFR3/FGFR2” value (FGFR3) was “A+ (Selectivity of FGFR3/FGFR2 greater or equal to 150)”.

In the case of `C=C(F)C(=O)Nc1ccc(-c2nn3ncnc(N)c3c2-c2ccc(C(=O)NC3CC3(F)F)c(OC)c2)c(F)c1` (stereo not drawn) [Compound 271], the IC50 (SNU16 cells; Homo sapiens, SNU-16, 72 h) is reported as at most 10 nM, the IC50 (FGFR2) is reported as under 5 nM and the “Selectivity FGFR1/FGFR2” value (FGFR1) is reported as “C (Selectivity of FGFR1/FGFR2 less than 200 but greater than or equal to 100)”. The “Selectivity FGFR3/FGFR2” value (FGFR3) was “B (Selectivity of FGFR3/FGFR2 less than 100 but greater than or equal to 25)”.

In the case of `C=C(F)C(=O)Nc1ccc(-c2c(-c3ccc(Oc4nccc(C)n4)c(F)c3)c3c(N)ncc(C#N)c3n2C)cc1` [Compound 344, N-(4-(4-amino-7-cyano-3-(3-fluoro-4-((4-methylpyrimidin-2-yl)oxy)phenyl)-1-methyl-1H-pyrrolo[3,2-c]pyridin-2-yl)phenyl)-2-fluoroacrylamide], the IC50 (SNU16 cells; Homo sapiens, SNU-16, 72 h) is reported as at most 10 nM, the IC50 (FGFR2) is reported as under 5 nM and the “Selectivity FGFR1/FGFR2” value (FGFR1) is reported as “A+ (Selectivity of FGFR1/FGFR2 greater or equal to 500)”. For the same compound, the “Selectivity FGFR3/FGFR2” value (FGFR3) was “A (Selectivity of FGFR3/FGFR2 less than 150 but greater than or equal to 100)”.

In the case of `C=CC(=O)Nc1ccc(-c2nn3ncnc(N)c3c2-c2ccc(C(=O)NCC3(C#N)CC3)c(OC)c2)cc1` [Compound 47, 4-(6-(4-acrylamidophenyl)-4-aminopyrazolo[5,1-f] [1,2,4]triazin-5-yl)-N-((1-cyanocyclopropyl)methyl)-2-methoxybenzamide], the IC50 (SNU16 cells; Homo sapiens, SNU-16, 72 h) is reported as at most 10 nM, the IC50 (FGFR2) is reported as under 5 nM and the “Selectivity FGFR1/FGFR2” value (FGFR1) is reported as “B (Selectivity of FGFR1/FGFR2 less than 300 but greater than or equal to 200)”. The “Selectivity FGFR3/FGFR2” value (FGFR3) was “B (Selectivity of FGFR3/FGFR2 less than 100 but greater than or equal to 25)”.

With `[2H]C([2H])([2H])n1c(-c2ccc(NC(=O)C=C)cc2)c(-c2ccc(C(=O)NCC(F)(F)F)c(OC)c2)c2c(N)ncc(C#N)c21` [Compound 355, 4-(2-(4-acrylamidophenyl)-4-amino-7-cyano-1-(methyl-d3)-1H-pyrrolo[3,2-c]pyridin-3-yl)-2-methoxy-N-(2,2,2-trifluoroethyl)benzamide] the IC50 (SNU16 cells; Homo sapiens, SNU-16, 72 h) was at most 10 nM, the IC50 (FGFR2) was under 5 nM and the “Selectivity FGFR1/FGFR2” value (FGFR1) was “A (Selectivity of FGFR1/FGFR2 less than 500 but greater than or equal to 300)”. For the same compound, the “Selectivity FGFR3/FGFR2” value (FGFR3) was “A+ (Selectivity of FGFR3/FGFR2 greater or equal to 150)”.

With `C=CC(=O)Nc1ccc(-c2c(-c3ccc(C(=O)NC4CC(F)C4)c(OC)c3)c3c(N)ncc(C#N)c3n2C)cc1` (stereo not drawn) [Compound 168, 4-(2-(4-acrylamidophenyl)-4-amino-7-cyano-1-methyl-1H-pyrrolo[3,2-c]pyridin-3-yl)-N-(3-fluorocyclobutyl)-2-methoxybenzamide] the IC50 (SNU16 cells; Homo sapiens, SNU-16, 72 h) was at most 10 nM, the IC50 (FGFR2) was under 5 nM and the “Selectivity FGFR1/FGFR2” value (FGFR1) was “A+ (Selectivity of FGFR1/FGFR2 greater or equal to 500)”. The “Selectivity FGFR3/FGFR2” value (FGFR3) was “A+ (Selectivity of FGFR3/FGFR2 greater or equal to 150)”.

For `C=C(F)C(=O)Nc1ccc(-c2nn3ncnc(N)c3c2-c2ccc(C(=O)NCC3(C(F)(F)F)CC3)c(OC)c2)c(F)c1` [Compound 358, 4-(4-amino-6-(2-fluoro-4-(2-fluoroacrylamido)phenyl)pyrazolo[5,1-f] [1,2,4]triazin-5-yl)-2-methoxy-N-((1-(trifluoromethyl)cyclo-propyl)methyl) benzamide], the IC50 (SNU16 cells; 72 h, read-out: Cell SNU-16 IC50) was at most 10 nM, the IC50 (FGFR2) was under 5 nM and the “Selectivity FGFR1/FGFR2” value (FGFR1) was “A+ (Selectivity of FGFR1/FGFR2 greater or equal to 500)”. For the same compound, the “Selectivity FGFR3/FGFR2” value (FGFR3) was “A (Selectivity of FGFR3/FGFR2 less than 150 but greater than or equal to 100)”.

`C=CC(=O)Nc1ccc(-c2[nH]c3c(C#N)cnc(N)c3c2-c2ccc(Oc3nccc(C)n3)c(OC)c2)cc1` [Compound 22, N-(4-(4-amino-7-cyano-3-(3-methoxy-4-((4-methylpyrimidin-2-yl)oxy)phenyl)-1H-pyrrolo[3,2-c]pyridin-2-yl)phenyl)acrylamide] was tested, and the IC50 (SNU16 cells; Homo sapiens, SNU-16, 72 h) was at most 10 nM, the IC50 (FGFR2) was under 5 nM and the “Selectivity FGFR1/FGFR2” value (FGFR1) was “A (Selectivity of FGFR1/FGFR2 less than 500 but greater than or equal to 300)”. For the same compound, the “Selectivity FGFR3/FGFR2” value (FGFR3) was “B (Selectivity of FGFR3/FGFR2 less than 100 but greater than or equal to 25)”.
